Our source for the IC50 values is patent publication EP0636626A1, “Pyrazolopyrimidine Derivatives” (LABORATOIRES GLAXO SA, priority 1993, dated 1995).

SMILES strings stand for the structures.

This test concerns the target T1, cGMP specific PDE (Phosphodiesterase type V) (Bos taurus, UniProt Q28156).
T1 construct: The PDE V in enzyme is isolated from bovine aorta; from tissue; host or cells: bovine aorta
The test can be described thus: cGMP specific PDE (PDE V) inhibition, "one step" assay. It is filed as biochemical. The note with it: PDE V isolated from bovine aorta; concentration of inhibitor required for 50% inhibition of enzyme activity; read-out: IC₅₀. The procedure:
The affinities of compounds of formula (I) for cGMP specific PDE (Phosphodiesterase type V) may be assessed by determination of their IC₅₀ values (the concentration of inhibitor required for 50% inhibition of enzyme activity). The PDE V in enzyme is isolated from bovine aorta, essentially by the method of Lugnier et al. in Biochem. Pharmacology 35, 1743 (1986) and assays are performed using a "one step" assay adapted from the method of Wells et al in Biochim. Biophys. Acta 384, 430 (1975).
Compounds of the invention were assayed according to the procedure described hereinabove.
In the case of `CCCOc1ccc(N)cc1-c1nc2c(c(C)nn2C)c(=O)[nH]1` [Example 7, 1,3-Dimethyl-6-(2-propoxy-5-aminophenyl)-1,5-dihydropyrazolo[3,4-d]pyrimidin-4-one], the IC50 was in the range of 1 to 10 nM.

In the case of `CCCOc1ccc(NC(=S)NCC)cc1-c1nc2c(c(C)nn2C)c(=O)[nH]1` [Example 31, 1,3-Dimethyl-6-(2-propoxy-5-ethylthioureidophenyl)-1,5-dihydro-pyrazolo[3,4-d]pyrimidin-4-one], the IC50 was 1 to 10 nM.

`CCCOc1ccc(-c2csc(C)n2)cc1-c1nc2c(c(C)nn2C)c(=O)[nH]1` [Example 51, 1,3-Dimethyl-6-[2-propoxy-5-(2-methyl-4-thiazolyl)phenyl]-1,5-dihydro-pyrazolo[3,4-d]pyrimidin-4-one]: the IC50 lay within 1 to 10 nM.

As to `CCCOc1ccc(NC(=O)C(F)(F)F)cc1-c1nc2c(c(C)nn2C)c(=O)[nH]1` [Example 41, 1,3-Dimethyl-6-(2-propoxy-5-trifluoroacetamidophenyl)-1,5-dihydro-pyrazolo[3,4-d]pyrimidin-4-one], the IC50 fell in the range of 1 to 10 nM.

On to `CCCOc1ccc(-c2nc(C)cs2)cc1-c1nc2c(c(C)nn2CC)c(=O)[nH]1` [Example 37, 1-Ethyl-3-methyl-6-[2-propoxy-5-(4-methyl-2-thiazolyl)phenyl]-1,5-dihydro-pyrazolo[3,4-d] pyrimidin-4-one], for which the IC50 was 1 to 10 nM.

Consider `CCCOc1ccc(-c2ccc(C)s2)cc1-c1nc2c(c(C)nn2C)c(=O)[nH]1` [Example 69, 1,3-Dimethyl-6-[2-propoxy-5-(5-methyl-2-thienyl)phenyl]-1,5-dihydropyrazolo[3,4-d]pyrimidin-4-one], for which the IC50 lay in the range of 1 to 10 nM.

For `CCCOc1ccc(-c2n[nH]c(-c3ccccc3)n2)cc1-c1nc2c(c(C)nn2C)c(=O)[nH]1` [Example 67, 1,3-Dimethyl-6-[2-propoxy-5-(3-phenyl-1,2,4-triazol-5-yl)phenyl]-1,5-dihydropyrazolo[3,4-d] pyrimidin-4-one], the IC50 was in the range of 1 to 10 nM.

On to `CCCOc1ccc(NC(C)=O)cc1-c1nc2c(c(C)nn2C)c(=O)[nH]1` [Example 15, 1,3-Dimethyl-6-(2-propoxy-5-acetamidophenyl)-1,5-dihydropyrazolo[3,4-d]pyrimidin-4-one], for which the IC50 lay in the range of 1 to 10 nM.

Consider `CCCOc1ccc(NC(=O)c2cccs2)cc1-c1nc2c(c(C)nn2C)c(=O)[nH]1` [Example 19, 1,3-Dimethyl-6-[2-propoxy-5-((2-thienyl)carboxamido)phenyl]-1,5-dihydropyrazolo[3,4-d]pyrimidin-4-one], for which the IC50 was in the range of 1 to 10 nM.

For `CCCOc1ccc(-c2csc(C)n2)cc1-c1nc2c(c(C)nn2CC)c(=O)[nH]1` [Example 63, 1-Ethyl-3-methyl-6-[2-propoxy-5-(2-methyl-4-thiazolyl)phenyl]-1,5-dihydropyrazolo[3,4-d]pyrimidin-4-one], the IC50 lay within 1 to 10 nM.

Take `CCCOc1ccc(NC(=O)c2ccc(F)cc2)cc1-c1nc2c(c(C)nn2C)c(=O)[nH]1` [Example 18, 1,3-Dimethyl-6-[2-propoxy-5-(4-fluorobenzamido)phenyl]-1,5-dihydropyrazolo[3,4-d]pyrimidin-4-one]: the IC50 is 1 to 10 nM.

For the compound `CCCOc1ccc(NC(=O)NCC)cc1-c1nc2c(c(C)nn2C)c(=O)[nH]1` [Example 30, 1,3-Dimethyl-6-(2-propoxy-5-ethylureidophenyl)-1,5-dihydro-pyrazolo[3,4-d]pyrimidin-4-one], the IC50 is 1 to 10 nM.

For the compound `CCCOc1ccc(-c2csc(-c3cccnc3)n2)cc1-c1nc2c(c(C)nn2CC)c(=O)[nH]1` [Example 65, 1-Ethyl-3-methyl-6-[2-propoxy-5-(2-(3-pyridyl)-4-thiazolyl)phenyl]-1,5-dihydropyrazolo[3,4-d]pyrimidin-4-one], the IC50 is 1 to 10 nM.

As for `CCCOc1ccc(NS(C)(=O)=O)cc1-c1nc2c(c(C)nn2C)c(=O)[nH]1` [Example 11, 1,3-Dimethyl-6-(2-propoxy-5-methanesulfonamidophenyl)-1,5-dihydropyrazolo[3,4-d]pyrimidin-4-one], the IC50 was 1 to 10 nM.

With `CCCOc1ccc(NC(=O)OCC)cc1-c1nc2c(c(C)nn2C)c(=O)[nH]1` [Example 22, 1,3-Dimethyl-6-(2-propoxy-5-ethoxycarbonylaminophenyl)-1,5-dihydropyrazolo[3,4-d]pyrimidin-4-one], the IC50 was in the range of 1 to 10 nM.
